Converted amounts (≈) assume the structure as drawn.
How the values were obtained:
in vivo = conditions: both sexes, ICR, mouse, in vivo, po
Description: (§1) Experimental materials: PAC-1 needle crystal (prepared according to the method of Quinn P. Peterson et al., J. Med. Chem. 2009, 52, 5721-5731), batch number 20090818.
(§2) Experimental animals and feeding conditions: ICR mice, half male and half female. Body weight 20±2 g, provided by Beijing Weitonglihua Experimental Animal Technology Co., Ltd., SPF grade feeding, certificate: SCXK (Beijing) 2006-0009. Particulate feed for mouse breeding was provided by Beijing Ke'ao Xieli Feed Co., Ltd. Animals were housed in barrier-level (Grade 2) animal lab in Beijing Anzhen Hospital, fluorescent lighting, 12 h light and dark cycle, room ? temperature 22˜24 ? , humidity 40-47%, air supply 10-12 times/h, Laboratory license number: SYXK (Beijing) 2005-0028. Mice were housed in clear plastic boxes with 5 per cage separated by gender.
(§3) The method of preparing the test drug: PAC-1 needle crystal was placed in a mortar to be finely ground. A propriate amount of PAC-1 crystal was accurately weighed, which was formulated with 0.5% CMC-Na to reach the desired concentration.
(§4) Animals grouping: After fasting (except for water) for 11 h, according to body weight, animals were randomly divided into groups of 10 with 5 males and 5 females. There were 8 groups in total. […]. One-time intragastric administration was used in the experiment. The negative control group was orally administered an equal volume of 0.5% CMC-Na. The animals started feeding at 3 hours after administration.
(§5) Observed indicators: immediately after administration, the observation of the responses of the animals to drugs (such as: general performance, respiration, activity, with or without convulsions, righting reflex, pain reflex, response to external stimuli and other indicators) was started. When observing and recording the symptom of toxic reaction after animal administration, the time and duration of toxicity, recovery time, and the time of animal death, the animal was immediately dissected grossly, visually observing the main organs (heart, liver, spleen, lung and kidney, stomach) to see if there is congestion, increased volume, hardens, discoloration. For survival animals, they were observed and recorded day by day whether there was delayed death and delayed toxicity reaction in 7 days. The animals were weighed and fed once every 2 days. After finishing observation for 7 days, the survival animals were dissected grossly and the situations of their main organs were observed. […]

ICR mice = assay: in vivo
Description: as §1, §2, §3, §4, §5

[1] = Solubility comparison of ZYS-1 and PAC-1 needle crystal (HPLC); assay type: physicochemical; conditions: organic solvent or mixture, thermodynamic from solid, room temperature
Experimental: The appropriate amounts of ZYS-1 and PAC-1 needle crystal were dissolved into the appropriate amount of methanol, absolute ethanol, 95% ethanol, acetonitrile, ethyl ether, ethyl acetate, propanol, acetone, respectively, and sonicated for 1 hour, then left at room temperature for 24 hours to obtain the oversaturated solution. After centrifugation at 4000 r/min for 5 min, the supernatant was diluted appropriately and filtered through a 0.45 μm needle filter. The concentration was determined by HPLC and the solubility was calculated.

[2] = In vivo pharmacokinetic comparison in rats; conditions: male Wistar rats, 60 mg/Kg, n = 6
Experimental: Twelve male Wistar rats were randomly divided into ZYS-1 group and PAC-1 group. These rats were fasted for 12 hours before administration, and fed water freely. After ZYS-1 and PAC-1 needle crystal were given at the dose of 60 mg/Kg, 0.5 mL orbital blood was collected at 0, 5, 20, 30, 45, 60, 120, 180, 240, 360, 480, 720 mins, centrifuged at 5000 r/min for 5 min. 200 μL plasma was taken. The plasma was added 3 mL acetone and vortexed for 1 min. After centrifuging at 15000 r/min for 5 min, the supernatant was collected and dried under nitrogen at 37° C., to which 200 μL acetonitrile was added to be reconstituted. After sonication for 10 min, the mixture was vortexed for 1 min, and filtered through 0.45 microporous filter membrane. The filtrate was tested by HPLC, and the plasma concentration at each time point was calculated.

[3] = Solubility comparison of ZYS-1 and PAC-1 needle crystal (HPLC); assay type: physicochemical; conditions: room temperature
[4] = system: Murine Lewis lung carcinoma cell line; assay: Spontaneous metastatic cancer in mice (Lewis lung carcinoma); conditions: 100 mg/kg/d, intragastric administration
Experimental: The tumors growed to 1000 mm^3 and then were randomly divided into groups for adminstration, the groups were treated after three weeks. A total of 4 groups including ZYS-1 high, medium and low (100, 50, 25 mg/kg/d, intragastric administration) and positive control (gefitinib 100 mg/kg/d, intragastric administration) groups were set. The efficacy of ZYS-1 was evaluated in terms of general survival status (food intake, activity, hair etc.), tumor inhibition rate and metastasis inhibition rate.
The curve of tumor growth was plotted. On the next day after completing the treatment cycle, the animal was weighed. After collecting the blood, the animal was sacrificed. The tumor tissue was stripped, weighed, and the tumor inhibition rate was calculated. Store at −80 ? .
Metastasis rate=Number of mice with metastasis/Total number of mice×100%
Inhibition rate of metastasis loci=(average number of metastasis loci in the control group−average number of metastasis loci in the experimental group)/average number of metastasis loci in the control group×100%

[5] = both, ICR, mouse, in vivo, 7 days
[6] = one-time intragastric administration to mice

## C=CCc1cccc(/C=N/NC(=O)CN2CCN(Cc3ccccc3)CC2)c1O [PAC-1 needle crystal, 1-Piperazineacetic acid, 4-(phenylmethyl)-2-[[2-hydroxy-3-(2-propen-1-yl)phenyl]methylene], reference compound]
In vivo; LD50 95% confidence limit
  LD50 at 7 days: 451 to 675 mg/kg
In vivo; acute toxicity (LD50) dose
  LD50 at 7 days: 552 mg/kg
ICR mice; [5]
  0% mortality dose: 240.1 mg/kg
  100% mortality dose: greater than 1000 mg/kg
  dose without apparent toxicity: 117.7 mg/kg
ICR mice; [6]
  time for most survival animals to return to normal after dosing: ≤ 3 h
  time of death after administration (mainly): 30˜60 min
[1]; 95% ethanol
  solubility at 24 h: 16.4 mg/mL (≈ 41.9 mM)
[1]; absolute ethanol
  solubility at 24 h: 18.9 mg/mL (≈ 48.3 mM)
[1]; acetone
  solubility at 24 h: 81.8 mg/mL (≈ 208 mM)
[1]; acetonitrile
  solubility at 24 h: 20.7 mg/mL (≈ 52.8 mM)
[1]; diethyl ether
  solubility at 24 h: 3.51 mg/mL (≈ 8.94 mM)
[1]; ethyl acetate
  solubility at 24 h: 33.4 mg/mL (≈ 85 mM)
[1]; methanol
  solubility at 24 h: 28.2 mg/mL (≈ 71.8 mM)
[1]; propanol
  solubility at 24 h: 16 mg/mL (≈ 40.9 mM)
[2]
  AUC(0-tn): 320.2186357 ± 127.0767162 µg·h/mL
  AUC(0-∞): 578.8993071 ± 466.830172 µg·h/mL
  Cmax: 2078.7579 ± 950.561 ng/mL
  MRT(0-tn): 254.3166 ± 180.2413 h
  MRT(0-∞): 1501.7189 ± 1808.4213 h
  Tmax: 52.5000 ± 12.5499 h
  T½ka: 15.4260 ± 11.8916 h
  T½α: 134.7563 ± 63.3796 h
  V/F: 0.0318 ± 0.0177 L
  ka: 0.0720 ± 0.0468 h⁻¹
  ke: 0.0062 ± 0.0029 h⁻¹
  lagtime: 8.8081 ± 4.8496 h
[3]; Water
  Solubility: 0.0015 mg/mL (≈ 0.00382 mM)
[3]; chloroform, organic solvent or mixture, thermodynamic from solid
  solubility at 24 h: 290 mg/mL (≈ 740 mM)

## COc1cc2ncnc(Nc3ccc(F)c(Cl)c3)c2cc1OCCCN1CCOCC1 [Gefitinib, gefitinib, reference compound]
[4]
  Body weight of the animals, End: 30.5 ± 5.0 g
  Metastasis rate: 100%
  Number of lung (metastasis loci): 6.9 ± 3.7
  Tumor weight: 2.1036 ± 0.3382 g
